Reference: patent publication US10398592B2, “Diagnostic methods and apparatus” (ForSight Vision4, Inc., priority 2011, dated 2019)
Where two headings read alike, the source gives them in different places.

Assays:
[1] = Diffusion model of release from the therapeutic device reservoir through the porous structure; conditions: for relative half-life in device 100: % of ranibizumab
From the text: The release rate of therapeutic agent 110 through a porous body, such as a sintered porous metal structure or a porous glass structure, may be described by diffusion of the therapeutic agent 110 within the porous structure 150 with the channel parameter, and with an effective diffusion coefficient equal to the diffusion coefficient of the therapeutic agent 110 in the liquid that fills the reservoir multiplied by the Porosity and a Channel Parameter of the porous body: Release Rate=(DP/F)A(cR−cV)/L, where: cR=Concentration in reservoir cV=Concentration outside of the reservoir or in the vitreous D=Diffusion coefficient of the therapeutic agent in the reservoir solution P=Porosity of porous structure F=Channel parameter that may correspond to a tortuosity parameter of channels of porous structure A=Area of porous structure L=Thickness (length) of porous structure Cumulative Release=1−cR/cR0=1−exp((−DPA/FLVR)t), where t=time, Vr=reservoir volume
A model can be derived to describe the release rate as a function of time by relating the change of concentration in the reservoir 140 to the release rate described above. This model assumes a solution of therapeutic agent 110 where the concentration in the reservoir 140 is uniform. In addition, the concentration in the receiving fluid or vitreous is considered negligible (cV=0). Solving the differential equation and rearrangement yields the following equations describing the concentration in the reservoir as a function of time, t, and volume of the reservoir, VR, for release of a therapeutic agent 110 from a solution in a reservoir though a porous structure 150. cR=cR0 exp((−DPA/FLVR)t) and Cumulative Release=1−cR/cR0
The molecular weight of the stabilizer can be provided in 1k Dalton increments from about 1k Dalton to about 200k Daltons and provide in a Table having about 200 rows similar to Table 2. The parameters of Table 2 determined such as the half-life in the device, the equivalent volume, the equivalent diameter, and % in the device at the half-life of the therapeutic agent 110. The table may comprise a row for each molecular weight in 1k Dalton increments, and the % of stabilizer in the device compared with the therapeutic agent 110. The table may include columns for two half-lives of the therapeutic agent, three half-lives of the therapeutic agent, four half-lives of the therapeutic agent, and the corresponding percentage of stabilizer remaining in the device.
FIG. 104 and Table 3 show concentrations of therapeutic agent, stabilizer and the ratio of stabilizer to therapeutic agent in accordance with an exemplary embodiment, for example. The concentrations and rations can be determined by a person of ordinary skill in the art based on the teachings described herein. […] Additional concentrations of the therapeutic agent can be used, for example greater amounts of therapeutic agent.

[2] = Diffusion coefficients and equivalent size estimated from molecular weight; assay type: physicochemical; conditions: for Diff Coeff: Table 2, 37 C, estimated from molecular weight; for Equiv volume / equivalent diameter: assumes unit density, per molecule; for D/(Ran D): diffusion relative to Ranibizumab
From the text: If the reservoir solution is aqueous or has a viscosity similar to water, the value for the diffusion coefficient of the therapeutic agent (TA) in water at the temperature of interest may be used. […] (Molokhia et al, Exp Eye Res 2008): DTA,37C=DBSA,20C(η20C/η37C)(MWBSA/MWTA)^1/3 where MW refers to the molecular weight of either BSA or the test compound and η is the viscosity of water.
The diffusion constant of the stabilizer can be determined, for example, based on an estimate of hydrodynamic radius corresponding to the cube root of the molecular weight as described herein.
The diffusion coefficients of Table 2 can be determined based on weight for molecular weights up to about 2.5 M Daltons, and based on size above about 2.5 M Daltons.

[3] = system: analytes detected in pathological aqueous samples; assay: Analytes in pathological aqueous samples pre-treatment and after intravitreal bevacizumab injection (Table 1); assay type: in vivo
From the text: The markers can be used to determine a course of treatment for the patient, and may be combined in many ways with the therapeutic agent as described herein. In many embodiments, the marker comprises a molecule that is a component of the eye which can diffuse through the porous structure into the reservoir structure. In many embodiments, the marker comprises a large molecule that can diffuse through the porous structure of the implanted device into the reservoir chamber. The therapeutic agent may comprise a large molecule or a small molecule that can diffuse through the porous structure, or combinations of large and small molecules. Work in relation to embodiments indicate that marker molecules having a lower molecular weight may accumulate in the implanted device more rapidly than larger molecular weight marker molecules, and that marker molecules having a molecular weight of no more than about 500 kDa can be used in many embodiments. In many embodiments the molecular weight can be smaller than 500 kDa, for example 100 kDa or less, so that the accumulation rate is increased. The molecular weight values of Table 1 can be combined in many ways to provide ranges of molecular weights of the measured marker. Alternatively or in combination, a plurality of markers of different molecular weight can be used to diagnose and treat the patient. Examples of markers and amounts similar to Table 1 can be used and are shown in Molecular Vision (Mol. Vis. 2010; 16: 2175-2184, Published online 2010 Oct. 27) available on the world wide web (at the address http://www.ncbi.nlm.nih.gov/pmc/articles/PMC2994336/table/t1/)
A ratio of pre-treatment mean concentration to post-treatment mean concentration is shown for the markers of Table 1. This ratio can be used to determine markers suitable to indicate efficacy of treatment and markers suitable for use as housekeeping genes. The markers having a ratio […] about 1.2, for example, can be suitable for use as housekeeping markers. Markers having a ratio above about 1.2 may be suitable for use as efficacy markers. In many embodiments, the one or more markers from the therapeutic device correspond to a pre/post ratio above of about 1.5, for example. Alternatively or in combination, the pre/post ratio can be less than 0.8, for example, and the marker risk may correspond to under-expression of protective factors, for example. The marker profile to diagnose the patient from a sample of the implanted device may comprise a plurality of up-regulation of pathogenic factor markers corresponding to a ratio above about 1.2 and a plurality of under-expression of protective factor markers corresponding to a ratio below about 0.8, for example.

[4] = vitreous, monkey; cited from earlier work
[5] = vitreous, rabbit; cited from earlier work
[6] = vitreous, human eye; cited from earlier work
[7] = aqueous samples after intravitreal bevacizumab injection
[8] = aqueous samples, intravitreal bevacizumab injection

N[C@@H](Cc1c[nH]cn1)C(=O)O [Histidine]
Device Half-life relative to Ranibiz. [1]: 0.15
Diff Coeff [2]: 6.8E−06 cm^2/s
Equiv volume [2]: 0.3 nm^3
D/(Ran D) [2]: 6.75

OC[C@H]1O[C@H](O[C@H]2O[C@H](CO)[C@@H](O)[C@H](O)[C@H]2O)[C@H](O)[C@@H](O)[C@@H]1O [Trehalose]
Device Half-life relative to Ranibiz. [1]: 0.20
relative amount remaining in therapeutic device 100 [1]: about 3.1%
relative half-life in device 100 [1]: about 20%
diffusion coefficient and rate of release through the porous structure relative to Ranibizumab ([1]; faster than Ranibizumab): approx. 5 times
Diff Coeff [2]: 5.0E−06 cm^2/s
Diff Coeff ([2]; listed as trehalose): ~5.0E-6 cm^2/s
Equiv volume [2]: 0.6 nm^3
equivalent diameter [2]: ~1.1 nm
D/(Ran D) [2]: 5.03

Bevacizumab
Alpha-1 Antitrypsin Post-treatment mean [3, 7]: 0.0025 mg/mL
Alpha-Fetoprotein Post-treatment mean [3, 7]: 0.2790 ng/mL
Apolipoprotein A1 Post-treatment mean [3, 7]: 0.0004 mg/mL
Apolipoprotein CIII Post-treatment mean [3, 7]: 0.0259 µg/mL
Apolipoprotein H Post-treatment mean [3, 7]: 0.6400 µg/mL
Beta-2 Microglobulin Post-treatment mean [3, 7]: 0.3026 µg/mL
C Reactive Protein Post-treatment mean [3, 7]: 0.0477 µg/mL
CD40 Post-treatment mean [3, 7]: 0.0510 ng/mL
Cancer Antigen 19-9 Post-treatment mean [3, 7]: 0.2042 U/ml
Cancer Antigen 125 Post-treatment mean [3, 7]: 1.7225 U/ml
Complement 3 Post-treatment mean [3, 7]: 0.0014 mg/mL
Endothelin-1 Post-treatment mean [3, 7]: 5.2375 pg/mL
Eotaxin Post-treatment mean [3, 7]: 13.5813 pg/mL
Erythropoietin Post-treatment mean [3, 7]: 111.6125 pg/mL
FGF basic Post-treatment mean [3, 7]: 30.8900 pg/mL
Fibrinogen Post-treatment mean [3, 7]: 0.0005 mg/mL
G-CSF Post-treatment mean [3, 7]: 3.6748 pg/mL
Glutathione S-Transferase Post-treatment mean [3, 7]: 0.1544 ng/mL
Haptoglobin Post-treatment mean [3, 7]: 0.0004 mg/mL
ICAM-1 Post-treatment mean [3, 7]: 0.6971 ng/mL
IGF-1 Post-treatment mean [3, 7]: 1.4285 ng/mL
IL-6 Post-treatment mean [3, 7]: 15.2016 pg/mL
IL-7 Post-treatment mean [3, 7]: 12.3125 pg/mL
IL-8 Post-treatment mean [3, 7]: 14.9900 pg/mL
IgA Post-treatment mean [3, 7]: 0.0015 mg/mL
IgM Post-treatment mean [3, 7]: 0.0009 mg/mL
Leptin Post-treatment mean [3, 7]: 0.2131 ng/mL
MCP-1 Post-treatment mean [3, 7]: 438.3750 pg/mL
MIP-1alpha Post-treatment mean [3, 7]: 9.4175 pg/mL
MIP-1beta Post-treatment mean [3, 7]: 21.7988 pg/mL
MMP-3 Post-treatment mean [3, 7]: 0.6159 ng/mL
Prostate Specific Antigen, Free Post-treatment mean [3, 7]: 0.0092 ng/mL
Prostatic Acid Phosphatase Post-treatment mean [3, 7]: 0.0095 ng/mL
SGOT Post-treatment mean [3, 7]: 1.3488 µg/mL
SHBG Post-treatment mean [3, 7]: 0.2250 nmol/L
Serum Amyloid P Post-treatment mean [3, 7]: 0.0134 µg/mL
Stem Cell Factor Post-treatment mean [3, 7]: 19.4375 pg/mL
TIMP-1 Post-treatment mean [3, 7]: 22.3825 ng/mL
Thyroxine Binding Globulin Post-treatment mean [3, 7]: 0.3876 µg/mL
Tissue Factor Post-treatment mean [3, 7]: 0.3631 ng/mL
VEGF Post-treatment mean [3, 7]: 484.1250 pg/mL
Alpha-1 Antitrypsin Pre-treatment mean/Post-treatment mean [3, 8]: 0.9
Alpha-Fetoprotein Pre-treatment mean/Post-treatment mean [3, 8]: 0.9
Apolipoprotein A1 Pre-treatment mean/Post-treatment mean [3, 8]: 1.8
Apolipoprotein CIII Pre-treatment mean/Post-treatment mean [3, 8]: 1.6
Apolipoprotein H Pre-treatment mean/Post-treatment mean [3, 8]: 1.3
Beta-2 Microglobulin Pre-treatment mean/Post-treatment mean [3, 8]: 1.4
C Reactive Protein Pre-treatment mean/Post-treatment mean [3, 8]: 2.3
CD40 Pre-treatment mean/Post-treatment mean [3, 8]: 1.3
Cancer Antigen 19-9 Pre-treatment mean/Post-treatment mean [3, 8]: 1.4
Cancer Antigen 125 Pre-treatment mean/Post-treatment mean [3, 8]: 1.0
Complement 3 Pre-treatment mean/Post-treatment mean [3, 8]: 0.9
Endothelin-1 Pre-treatment mean/Post-treatment mean [3, 8]: 1.0
Eotaxin Pre-treatment mean/Post-treatment mean [3, 8]: 1.3
Erythropoietin Pre-treatment mean/Post-treatment mean [3, 8]: 1.1
FGF basic Pre-treatment mean/Post-treatment mean [3, 8]: 1.7
Fibrinogen Pre-treatment mean/Post-treatment mean [3, 8]: 2.2
G-CSF Pre-treatment mean/Post-treatment mean [3, 8]: 4.7
Glutathione S-Transferase Pre-treatment mean/Post-treatment mean [3, 8]: 0.9
Haptoglobin Pre-treatment mean/Post-treatment mean [3, 8]: 1.3
ICAM-1 Pre-treatment mean/Post-treatment mean [3, 8]: 1.1
IGF-1 Pre-treatment mean/Post-treatment mean [3, 8]: 1.0
IL-6 Pre-treatment mean/Post-treatment mean [3, 8]: 7.9
IL-7 Pre-treatment mean/Post-treatment mean [3, 8]: 0.9
IL-8 Pre-treatment mean/Post-treatment mean [3, 8]: 1.5
IgA Pre-treatment mean/Post-treatment mean [3, 8]: 0.9
IgM Pre-treatment mean/Post-treatment mean [3, 8]: 1.4
Leptin Pre-treatment mean/Post-treatment mean [3, 8]: 1.8
MCP-1 Pre-treatment mean/Post-treatment mean [3, 8]: 1.5
MIP-1alpha Pre-treatment mean/Post-treatment mean [3, 8]: 1.1
MIP-1beta Pre-treatment mean/Post-treatment mean [3, 8]: 1.1
MMP-3 Pre-treatment mean/Post-treatment mean [3, 8]: 1.0
Prostate Specific Antigen, Free Pre-treatment mean/Post-treatment mean [3, 8]: 1.8
Prostatic Acid Phosphatase Pre-treatment mean/Post-treatment mean [3, 8]: 2.7
SGOT Pre-treatment mean/Post-treatment mean [3, 8]: 1.3
SHBG Pre-treatment mean/Post-treatment mean [3, 8]: 2.3
Serum Amyloid P Pre-treatment mean/Post-treatment mean [3, 8]: 2.1
Stem Cell Factor Pre-treatment mean/Post-treatment mean [3, 8]: 1.0
TIMP-1 Pre-treatment mean/Post-treatment mean [3, 8]: 1.4
Thyroid Stimulating Hormone Pre-treatment mean/Post-treatment mean [3, 8]: 1.6
Thyroxine Binding Globulin Pre-treatment mean/Post-treatment mean [3, 8]: 1.6
Tissue Factor Pre-treatment mean/Post-treatment mean [3, 8]: 1.0
VEGF Pre-treatment mean/Post-treatment mean [3, 8]: 1.4
Device Half-life relative to Ranibiz. [1]: 1.46

Polysorbate 20
relative half-life in device 100 [1]: about 29%
relative amount remaining in therapeutic device 100 ([1]; at the half-life of ranibizumab): about 9.5%
Diff Coeff [2]: 3.4E−06 cm^2/s
Diff Coeff ([2]; listed as polysorbate 20): ~3.4E-6 cm^2/s
Equiv volume [2]: 2.0 nm^3
equivalent diameter [2]: ~1.6 nm
D/(Ran D) [2]: 3.39

Ranibizumab
Device Half-life relative to Ranibiz. [1]: 1.00
half-life [4]: approximately 3 days
half-life [5]: approximately 3 days
half-life [6]: 220 h
